{
  "source": "patent US6653345B2",
  "about": "“C-C chemokine synthesis inhibitor” (Toray Industries, Inc., priority 1997, dated 2003)",
  "key": {"[1]": {"tested_on": "MCP-1 production of THP-1 cells", "assay": "MCP-1 production of THP-1 cells stimulated with LPS", "format": "cell-based, human", "settings": "for Inhibition rate of MCP-1 production of THP-1 cells: same method as Example 1 (LPS), concentration not given; for MCP-1 production of THP-1 cells (effect in words): 10 μg/ml LPS, compound added before LPS, supernatant 24 hours after stimulation", "description": "The action of beraprost (BPS) on MCP-1 production was examined by using human monocyte/macrophage system leukemic cells THP-1. Lipopolysaccharide (LPS: Difco Corp.) reactive substrains were isolated from THP-1 cells (obtained from ATCC Corp.), and cultured in a RPMI 1640 medium (Gibco Corp.) containing 10% FCS in a flask. The THP-1 cells (1×10^5 cells) were dispensed to a 12-well plate, and activated with 10 μg/ml of LPS. BPS was added 5 minutes before LPS stimulation. A cell supernatant was obtained 24 hours after stimulation, and the amount of MCP-1 production was measured by using a human MCP-1 eraser kit (R&D Corp.). The amount of production was calculated based on a calibration curve formed in the range of 31.2 to 2000 pg/ml by using MCP-1 standards contained in the kit.\nThe actions of prostaglandin I2 (PGI2), prostaglandin E1 (PGE1), and prostaglandin E2 (PGE2) on MCP-1 production were examined by the same method as Example 1. As a result, MCP-1 production was inhibited by PGI2, PGE1, and PGE2 (FIG. 6).\nThe actions of the compounds shown in the table below on MCP-1 production by the same method as Example 1. The action of each of the compounds was shown by an inhibition rate. As a result, MCP-1 production was inhibited by these compounds (Table 2)."}, "[2]": {"tested_on": "MCP-1 production of human peripheral blood monocytes", "assay": "MCP-1 production of human peripheral blood-derived monocytes stimulated with LPS", "format": "cell-based", "from_the_text": "The action of BPS on MCP-1 production was studied by using human peripheral blood-derived monocytes. The heparinized peripheral blood of a healthy person was superposed on a histo-pack (Sigma Corp.), and centrifuged to obtain a monocyte layer. The thus-obtained monocyte layer was reacted with magnetic beads (Miltenyi Biotec Corp.) of anti—CD3 and anti—CD19, and monocytes were purified by a negative selection method using a MACS column (Miltenyi Biotec Corp.). The thus-obtained monocytes were re-suspended in a RPMI 1640 medium so that 1×10^6 cells/ml of cells were obtained. The cells were dispensed to a 48-well plate, and activated with 10 ng/ml of LPS. BPS was added 5 minutes before LPS stimulation. A cell supernatant was obtained 24 hours after stimulation, and the amount of MCP-1 produced was measured by using a human MCP-1 eraser kit. The amount of production was calculated based on a calibration curve formed in the range of 31.2 to 2000 pg/ml by using MCP-1 standards contained in the kit.\n(§1) The action of prostaglandin J2 (PGJ2) on MCP-1 production due to LPS or TPA simulation was studied by the same method as Examples 3 and 8 using monocytes derived from the human peripheral blood. PGJ2 was added 1 minute before stimulation. As a result, MCP-1 production due to stimulation by either LPS or TPA was inhibited by PGJ2(Table 3)."}, "[3]": {"tested_on": "MCP-1 mRNA of THP-1 cells", "assay": "Expression of MCP-1 mRNA of THP-1 cells stimulated with LPS", "format": "cell-based, human", "settings": "10 μg/ml LPS, RNA 24 hours after stimulation", "description": "The action of BPS on MCP-1 production was examined by using human monocyte/macrophage system leukemic cells THP-1 and the amount of mRNA expression as an index. LPS reactive substrains were isolated from THP-1 cells, and cultured in a RPMI 1640 medium containing 10% FCS in a flask. THP-1 cells (1×10^6 cells) were dispensed to a petri dish having a diameter of 10 cm, and activated with 10 μg/ml of LPS. BPS was added 5 minutes before LPS stimulation. The total of RNA was extracted with a LiCl-urea solution (6M urea/3M LiCl/5 mM EDTA) 24 hours after stimulation, and dissolved in a TE solution (10 mm Tris-HCl/lmM EDTA, pH 8.0), and then proteins were removed with phenol and chloroform, followed by RNA recovery by ethanol precipitation. RNA was developed by formaldehyde-modified 1% agarose gel, and transferred to a Hybond-N filter (Amersham Corp.), and then MCP-1 mRNA was detected by using a ^32 human MCP-1 probe. The detection was carried out by using a X-ray film or imaging film, and the amount of expression was digitized by BAS2000."}, "[4]": {"tested_on": "MCP-1 production of human peripheral blood monocytes", "assay": "MCP-1 production of human peripheral blood monocytes stimulated with TPA", "format": "cell-based", "description": "Monocytes derived from the human peripheral blood were isolated by the same method as Example 3, and stimulated with 25 nM 12-o-tetradecanoylphorbol 13-acetate (TPA) to induce MCP-1 production. The action of BPS on MCP-1 production was studied.\nas §1"}, "MCP-1 amount in blood": {"tested_on": "MCP-1 amount in blood", "assay": "MCP-1 amount in LPS-induced blood of streptozotocin diabetic rats", "format": "in vivo, rat", "description": "SD male rats were intravenously administered with 45 mg/kg streptozotocin to induce diabetes. At the eighth week after 2 mg/kg of LPS was administered to the rats to measure the MCP-1 amount in the blood before administration and 3 and 6 hours after administration. BPS was orally administered to the rats 30 minutes before LPS administration. Rats of the same age as the diabetic rat group were used as a normal group."}, "[5]": {"tested_on": "streptozotocin-induced diabetic rats", "assay": "Neurotransmission rate of the ischiatic nerve in streptozotocin-induced diabetic rats", "format": "in vivo, rat"}, "[6]": {"tested_on": "MCP-3 production of THP-1 cells", "assay": "MCP-3 production of THP-1 cells stimulated with LPS", "format": "cell-based, human", "settings": "10 μg/ml LPS, supernatant 24 hours after stimulation", "description": "The action of BPS on MCP-3 production was examined by using human monocyte/macrophage system leukemic cells THP-1. LPS reactive substrains were isolated from THP-1 cells, and cultured in a RPMI 1640 medium containing 10% FCS in a flask. THP-1 cells (1×10^6 cells) were dispensed to a 12-well plate, and activated with 10 μg/ml of LPS. BPS was added 5 minutes before LPS stimulation. A cell supernatant was obtained 24 hours after stimulation, and the amount of the MCP-3 produced was measured by using a MCP-3 detection method developed by the inventors. The amount of production was calculated based on a calibration curve formed in the range of 0.195 to 12.5 ng/ml by using MCP-3 standards."}, "[7]": {"tested_on": "glomerulonephritis rat model", "assay": "Glomerulonephritis rat model (anti-glomerular basement membrane antibody)", "format": "in vivo", "description": "A glomerular basement membrane was administered with an antibody to form a glomerulonephritis rat model. The rats used were 9-week old male WKY rats which were purchased from Japan Charles River. The antibody was obtained by immunizing the rat glomerular basement membrane against rabbits. […] A glomerular lesion such as formation of the crescent was also confirmed by pathological findings, and an irreversible glomerulonephritis model could be formed by administering the antibody to the anti-glomerular basement membrane. MCP-1 production in the kidney was increased with the passage of days after administration of the antibody to produce infiltration of leukocytes such as macrophages and the like. 1 mg/kg of BPS was orally administered on consecutive days to study the action of BPS on MCP-1 production and infiltration of the macrophages. The MCP-1 production was studied by purifying messenger RNA (mRNA) from the rat kidneys, and determining the amount of MCP-1 mRNA expression by quantitative PCR. The macrophage infiltration was studied by immunostaining with an anti-macrophage antibody (ED-1), and then counting the macrophages infiltrated into the glomeruli under a microscope. […] Using the same glomerulonephritis model, the action of BPS on the amount of urea protein was studied 4 days and 7 days after administration of the antibody."}, "[8]": {"tested_on": "RANTES production of THP-1 cells", "assay": "RANTES production of THP-1 cells stimulated with LPS", "format": "cell-based, human", "settings": "LPS stimulation, 10 μM PGJ2 (5177 without PGJ2)", "description": "THP-1 cells were prepared by the same method as Example 1, and stimulated with LPS to induce RANTES production. The amount of RANTES production was measured by RANTES eraser kit (R&D Corp.). The action of PGJ2 on RANTES production was studied."}},
  "data": [
    {"molecule": "O=C(O)CCc1cccc2c1O[C@H]1C[C@@H](O)C(/C=C/[C@@H](O)c3ccccc3)[C@@H]21", "note": "(stereo partly drawn)", "values": [
      {"measurement": "Inhibition rate of MCP-1 production of THP-1 cells", "setting": "[1]", "value": 58, "unit": "%"}
    ]},
    {"molecule": "CC(O)CCc1cccc2c1O[C@H]1C[C@@H](O)C(/C=C/[C@@H](O)C(C)(C)Oc3ccccc3)[C@@H]21", "note": "(stereo partly drawn)", "values": [
      {"measurement": "Inhibition rate of MCP-1 production of THP-1 cells", "setting": "[1]", "value": 4, "unit": "%"}
    ]},
    {"molecule": "O=C(O)CCc1cccc2c1O[C@H]1C[C@@H](O)C(/C=C/[C@@H](O)C3CCCCC3)[C@@H]21", "note": "(stereo partly drawn)", "values": [
      {"measurement": "Inhibition rate of MCP-1 production of THP-1 cells", "setting": "[1]", "value": 85, "unit": "%"}
    ]},
    {"molecule": "CC(C)(CO)Cc1cccc2c1O[C@H]1C[C@@H](O)C(/C=C/[C@@H](O)C(C)(C)Oc3ccccc3)[C@@H]21", "note": "(stereo partly drawn)", "values": [
      {"measurement": "Inhibition rate of MCP-1 production of THP-1 cells", "setting": "[1]", "value": 28, "unit": "%"}
    ]},
    {"molecule": "O=C(O)COc1cccc2c1O[C@H]1C[C@@H](O)C(/C=C/[C@@H](O)c3ccccc3)[C@@H]21", "note": "(stereo partly drawn)", "values": [
      {"measurement": "Inhibition rate of MCP-1 production of THP-1 cells", "setting": "[1]", "value": 61, "unit": "%"}
    ]},
    {"molecule": "O=C(O)CCc1cccc2c1O[C@H]1C[C@@H](O)C(/C=C/[C@@H](O)CC3CCCCC3)[C@@H]21", "note": "(stereo partly drawn)", "values": [
      {"measurement": "Inhibition rate of MCP-1 production of THP-1 cells", "setting": "[1]", "value": 87, "unit": "%"}
    ]},
    {"molecule": "CC#CCC(C)[C@H](O)/C=C/[C@@H]1[C@H]2c3cccc(CCCC(=O)O)c3O[C@H]2C[C@H]1O", "note": "(mixture of isomers) [BPS, beraprost]", "values": [
      {"measurement": "MCP-1 production of human peripheral blood monocytes (effect in words)", "setting": "[2]; 10 ng/ml LPS, supernatant 24 hours after stimulation", "value": "inhibits dose-dependently"},
      {"measurement": "expression of MCP-1 mRNA of THP-1 cells (effect in words)", "setting": "[3]", "value": "inhibits dose-dependently"},
      {"measurement": "MCP-1 produced", "setting": "[4]; 25 nM TPA stimulation, 100 nM BPS (224.7 without BPS)", "value": 184, "unit": "pg/1×10^6 cells"},
      {"measurement": "MCP-1 amount in blood", "setting": "MCP-1 amount in blood; BPS oral 30 minutes before 2 mg/kg LPS, 3 hours after", "value": "7.27 ± 2.55", "unit": "ng/mL"},
      {"measurement": "MCP-1 amount in blood", "setting": "MCP-1 amount in blood; BPS oral 30 minutes before 2 mg/kg LPS, 6 hours after", "value": "4.82 ± 4.40", "unit": "ng/mL"},
      {"measurement": "MCP-1 amount in blood", "setting": "MCP-1 amount in blood; BPS oral 30 minutes before LPS, before LPS administration", "value": "0.39 ± 0.13", "unit": "ng/mL"},
      {"measurement": "decrease in the neurotransmission rate due to diabetes (effect in words)", "setting": "[5]", "value": "significantly improved"},
      {"measurement": "MCP-1 production of THP-1 cells (effect in words)", "setting": "[1]", "value": "inhibits dose-dependently"},
      {"measurement": "MCP-3 production of THP-1 cells (effect in words)", "setting": "[6]", "value": "inhibits dose-dependently"},
      {"measurement": "MCP-1 mRNA expression in kidney (effect in words)", "setting": "[7]; 1 mg/kg BPS oral on consecutive days, 4 days and 7 days after antibody, quantitative PCR", "value": "inhibition"},
      {"measurement": "infiltration of macrophage per glomerulus (effect in words)", "setting": "[7]; 1 mg/kg BPS oral on consecutive days, 4 days and 7 days after antibody, vs distilled water group", "value": "significantly inhibited"},
      {"measurement": "amount of urea protein (effect in words)", "setting": "[7]; 1 mg/kg BPS oral, 4 days and 7 days after administration of the antibody", "value": "significantly decreased"}
    ]},
    {"molecule": "CCCCC[C@H](O)/C=C/[C@H]1[C@H](O)CC(=O)[C@@H]1CCCCCCC(=O)O", "note": "[PGE1, prostaglandin E1]", "values": [
      {"measurement": "MCP-1 production of THP-1 cells (effect in words)", "setting": "[1]", "value": "inhibited"}
    ]},
    {"molecule": "CCCCC[C@H](O)/C=C/[C@H]1[C@H](O)CC(=O)[C@@H]1C/C=C\\CCCC(=O)O", "note": "[PGE2, prostaglandin E2]", "values": [
      {"measurement": "MCP-1 production of THP-1 cells (effect in words)", "setting": "[1]", "value": "inhibited"}
    ]},
    {"molecule": "CCCCC[C@H](O)/C=C/[C@@H]1[C@H]2C/C(=C/CCCC(=O)O)O[C@H]2C[C@H]1O", "note": "[PGI2, prostaglandin I2]", "values": [
      {"measurement": "MCP-1 production of THP-1 cells (effect in words)", "setting": "[1]", "value": "inhibited"}
    ]},
    {"molecule": "CCCCC[C@H](O)/C=C/[C@H]1C(=O)C=C[C@@H]1C/C=C\\CCCC(=O)O", "note": "[PGJ2, prostaglandin J2]", "values": [
      {"measurement": "MCP-1", "setting": "[2]; LPS 10 ng/ml + PGJ2 10 μM (21872 with LPS alone)", "value": 6, "unit": "pg/10^6 cells"},
      {"measurement": "RANTES produced", "setting": "[8]", "value": 2403, "unit": "pg/5×10^5 cells"},
      {"measurement": "MCP-1", "setting": "[4]; TPA 25 nM + PGJ2 10 μM (225 with TPA alone)", "value": 2, "unit": "pg/10^6 cells"}
    ]}
  ]
}
